Experimental data taken from patent US12048699B2, “Cancer treatment methods based on TP53 mutation status and hypermutation” (TAKEDA PHARMACEUTICAL COMPANY LIMITED, priority 2018, dated 2024).

Tests used:
[1] = system: human primary tumor xenograft models; assay: phase 2-like preclinical study in human primary tumor xenograft (PDX) models, % ΔTGI response vs mutation status; format: in vivo, Balb/c nude mice; conditions: 77 PDX models, crystalline form A of Compound 1 hemihydrate, 60 mg/kg, Bid, po, 21 days, 3 days on 4 days off
Excerpt: Compound 1 is an investigational drug under clinical development for cancer treatment. Compound 1 achieves anti-tumor effects by inhibiting Cdc7 kinase, which is involved in DNA replication and repair. Predictive biomarker identification was investigated using data derived from a phase 2-like preclinical study, that is human primary tumor xenograft models using Balb/c nude mice ([…], female, 6-8 weeks old, 18-22 g). For each model, 6 tumor bearing mice were randomized into 2 groups. Tumor fragments from seed mice inoculated with selected PDX tumors were harvested and used for inoculation into Balb/c nude mice. Each mouse was inoculated subcutaneously at the right flank with one tumor fragment (2-3 mm in diameter). The treatments were started when mean tumor size reached approximately 200-250 mm^3. Mice were dosed orally with either vehicle or Compound 1 (crystalline form A of Compound 1 hemihydrate, 60 mg/kg, Bid, po, 21 days, 3 days on 4 days off). TP53 mutation status and hypermutation status as measured by microsatellite instability/stability (MSI/MSS) status were identified as predictive biomarkers for cancer treatment with Compound 1.
Whole exome sequencing (WES) and RNA sequencing (RNASeq) were done for 92 xenograft models whose cancer types are colon (n=40), pancreas (n=24), non-small cell lung (n=23), and ovary cancer (n=5).
In this study, % ΔTGI (percent delta tumor growth inhibition) was used and its mathematical definition is as follows.
In the above equation, Tt and T0 represent the sizes of tumor in treatment at time t and 0 and similarly Ct and C0 mean the sizes of tumor in control (vehicle) at the same time points t and 0. Therefore, a large % ΔTGI indicates a higher degree of tumor growth inhibition in treatment than in vehicle.
Binary response was inferred by categorizing % ΔTGI, so that samples were classified as responders with high % ΔTGI and non-responders with low % ΔTGI. Chi-square test was run to evaluate the potential association between the class labels (responder vs. non-responder) and mutational status (MUT vs. WT). […]

human hepatocytes = assay: metabolism in human hepatocytes; format: in vitro ADME; conditions: metabolite structures shown in drawing 7

With Cc1[nH]ncc1-c1cc2nc([C@@H]3CC4CCN3CC4)[nH]c(=O)c2s1 [Compound 1, 2-[(2S)-1-azabicyclo[2.2.2]oct-2-yl]-6-(3-methyl-1H-pyrazol-4-yl)thieno[3,2-d]pyrimidin-4(3H)-one] the “association of TP53 mutation with response (% ΔTGI, responder vs. non-responder)” value ([1]; Chi-square test / decision tree) was “most significantly associated with response”, the “association of CHD family genes mutation with response (% ΔTGI, responder vs. non-responder)” value ([1]; decision tree) was “associated with non-response” and the “association of hypermutation with response (% ΔTGI, responder vs. non-responder)” value ([1]; decision tree) was “associated with non-response”. The metabolism to metabolites (human hepatocytes) was “can be metabolized to compounds of the following structures”.
